Series [1] deals with rhIL-6. The series can be described thus: Solution-based IL-6 immunoassay with antibodies directly labeled with reactive peptides. Particulars: for IL-6 assay result with LgTrip 5146: 1 μM LgTrip 5146 instead of LgTrip 3546; for signal to background: IL-6 titration; for signal to background / signal in the absence of rhIL-6: paired with HW-1053, 1 μM LgTrip 3546; for light output in the presence of high rhIL-6 concentrations: SmTrip9 label on 5IL6 antibody paired with HW-1053-labeled 505E antibody, 1 μM LgTrip 3546. Set-up: species or system human. Here is the method: The basic principle of homogeneous NanoLuc tripartite immunoassays with directly-labeled antibodies is depicted in FIG. 78.
SmTrip9 variants such as Pep693 (SEQ ID NO: 20), Pep895 (SEQ ID NO: 24), and Pep929 (SEQ ID NO: 25) or SmTrip10 variants such as Pep691 (SEQ ID NO: 18) and Pep692 (SEQ ID NO: 19) were individually dissolved in DMF to 5 mM. […] Subsequently, these antibodies were combined with 20× molar excess of a reactive peptide for 1 hr at 4° C. while shaking in order to covalently label the proteins. […] SmTrip9 reactive peptides were used to label antibody 5IL6 while SmTrip10 reactive peptides were used to label antibody 505E. The denaturing SDS-PAGE gel shown in FIG. 79 was used to characterize the conjugated antibodies.
FIGS. 80-82 display raw RLU dose response curves for antibody conjugates in the presence of a rhIL-6 titration series. […] After addition of N205, luminescence signal was measured. […] Data in FIG. 81 were generated using 62.5 ng/ml of SmTrip9-labeled (HW-0984) 5IL6 antibody and 60 ng/ml of SmTrip10-labeled (HW-1053) 505E antibody. Data in FIG. 82 were generated using the following concentrations of antibody conjugates: 15 ng/ml HW-1043 (SEQ ID NO: 24)+30 ng/ml HW-1053 (SEQ ID NO: 18), 15 ng/ml HW-1052 (SEQ ID NO: 25)+15 ng/ml HW-1053, (SEQ ID NO: 18) 15 ng/ml HW-1055 (SEQ ID NO: 25)+15 ng/ml HW-1053 (SEQ ID NO: 18), 60 ng/ml HW-1042 (SEQ ID NO: 20)+8 ng/ml HW-1053 (SEQ ID NO: 18), and 60 ng/ml HW-1050 (SEQ ID NO: 27)+8 ng/ml HW-1053 (SEQ ID NO: 18).

In series [2] the target is T1, purified NANOLUC enzyme (Oplophorus gracilirostris, UniProt Q9GV45, A31E/A60N/A81I/F95D/I117V/K70R/L54V/L99Q/M102K/N193R/P142E/Q151K/Q38R/Q45L/V71I/Y165I).
T1 construct: purchased Promega
The class given is biochemical. Particulars: stored in organic solvent at elevated temperature (60° C.).

Series [3] has as its target LgTrip 3546. The series can be described thus: titration of the single labeled antibody with 1 µM LgTrip 3546 and N205, no IL-6 (FIG. 83).
A short description of series [4]: Protein buffer formulations for proteins dried on Whatman 903 paper. The following applies: buffers 2 and 5.
Method: For these experiments, Whatman 903 protein saver spot cards were used with the following protein buffer formulations: • Protein buffer 1: 20 mM Na3PO4, 5% w/v BSA, 0.25% v/v tween 20, 10% w/v sucrose • Protein buffer 2: 20 mM Na3PO4, 0.25% v/v tween 20, 10% w/v sucrose • Protein buffer 3: 20 mM Na3PO4, 5% w/v BSA, 0.25% v/v tween 20 • Protein buffer 4: 20 mM Na3PO4, 5% w/v BSA, 0.25% v/v tween 20, 2.5% pullulan • Protein buffer 5: 20 mM Na3PO4, 0.25% v/v tween 20, 2.5% pullulan.
For NanoLuc, a 1000× stock solution was diluted 1:1000 in protein buffer (1 mL). For a 1.068 nM stock solution, 3 μl was diluted into 297 μl of protein buffer. About 5 μL of each concentration was spotted on the filter paper. For LgBiT-1672-11s-His, 5 μL of 1.068 nM protein per spot was used. About 104, was diluted in 990 μL protein buffer for a 2e^−7M stock. About 100 μL of a 100 nM protein solution was then prepared, and about 10 μL stock was diluted into 990 μL protein buffer for 1 nM stock. About 5 μL of each concentration was spotted onto filter paper. For LgTrip 3546, about 5 μL of 1.068 nM protein was used per spot. About 1.1 of LgBiT-1672 stock was diluted into 998.94 μL protein buffer. About 3 μL stock was diluted into 297 μL protein buffer. About 54, of each concentration was spotted onto filter paper. After all protein was added, the samples were dried at 30° C. for about 1 hour. […]

Residues, ends and D or L forms follow the SMILES beside them. No end group written: not given here. *: point of attachment. X1 = O=C(CCOCCOCCOCOCCOCCOCCOCCC(=O)*)ON1C(=O)CC(S(=O)(=O)O)C1=O; X3 = O=C(CCOCCOCCOCCOCCOCCOCCC(=O)*)ON1C(=O)CC(S(=O)(=O)O)C1=O; X2 = O=C(CCOCCOCCOCCC(=O)*)ON1C(=O)CC(S(=O)(=O)O)C1=O

Chain of LgTrip 3546 (chain, as listed by the source): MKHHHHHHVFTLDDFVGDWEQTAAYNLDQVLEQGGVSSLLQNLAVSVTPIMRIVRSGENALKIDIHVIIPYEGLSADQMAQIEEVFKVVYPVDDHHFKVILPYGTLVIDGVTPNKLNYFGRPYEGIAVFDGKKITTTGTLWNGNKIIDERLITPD

`CC[C@H](C)[C@H](NC(=O)[C@@H](NC(=O)[C@@H](NC(=O)[C@@H](NC(=O)[C@H](Cc1ccccc1)NC(=O)[C@H](CC(C)C)NC(=O)[C@H](CC(C)C)NC(=O)[C@H](CCCNC(=N)N)NC(=O)CNC(=O)CCOCCOCCOCCOCOCCOCCOCCC(=O)ON1C(=O)CC(S(=O)(=O)O)C1=O)[C@@H](C)O)C(C)C)[C@@H](C)O)C(=O)N[C@@H](CCC(=O)O)C(=O)N[C@@H](CCCNC(=N)N)C(=O)N[C@@H](Cc1ccc(O)cc1)C(=O)N[C@@H](CCCNC(=N)N)C(N)=O` (some centres unmarked) [HW-1043, SulfoSE-PEG6-SmTrip9 Pep895] (X1-GRLLFTVTIERYR-NH2): in series [1], the “IL-6 assay result with LgTrip 5146” value is listed as “results similar to LgTrip 3546”, the signal to background entry was “best signal to background”, the “light output in the presence of high rhIL-6 concentrations” value is listed as ~10^6 RLUs and the “signal in the absence of rhIL-6” value is listed as “low light output in the absence of the analyte”.

As to `CC[C@H](C)[C@H](NC(=O)[C@@H](NC(=O)[C@@H](NC(=O)[C@H](CCCNC(=N)N)NC(=O)[C@H](Cc1ccccc1)NC(=O)[C@H](CC(C)C)NC(=O)[C@H](CCSC)NC(=O)[C@H](CCCNC(=N)N)NC(=O)[C@H](CCCNC(=N)N)NC(=O)CCOCCOCCOCCOCCOCCOCCC(=O)ON1C(=O)CC(S(=O)(=O)O)C1=O)C(C)C)[C@@H](C)O)C(=O)N[C@@H](CCC(N)=O)C(=O)N[C@@H](CCCNC(=N)N)C(=O)N[C@@H](Cc1c[nH]c2ccccc12)C(=O)N[C@@H](CCCNC(=N)N)C(=O)O` (some centres unmarked) [HW-1052, SulfoSE-PEG6-SmTrip9 Pep929] (X3-RRMLFRVTIQRWR-OH), the “signal in the absence of rhIL-6” value in series [1] was “high signal even in the absence of rhIL-6”.

Regarding `CC[C@H](C)[C@H](NC(=O)[C@@H](NC(=O)[C@@H](NC(=O)[C@H](CCCNC(=N)N)NC(=O)[C@H](Cc1ccccc1)NC(=O)[C@H](CC(C)C)NC(=O)[C@H](CCSC)NC(=O)[C@H](CCCNC(=N)N)NC(=O)[C@H](CCCNC(=N)N)NC(=O)CCOCCOCCOCCC(=O)ON1C(=O)CC(S(=O)(=O)O)C1=O)C(C)C)[C@@H](C)O)C(=O)N[C@@H](CCC(N)=O)C(=O)N[C@@H](CCCNC(=N)N)C(=O)N[C@@H](Cc1c[nH]c2ccccc12)C(=O)N[C@@H](CCCNC(=N)N)C(=O)O` (some centres unmarked) [HW-1055, SulfoSE-PEG3-SmTrip9 Pep929] (X2-RRMLFRVTIQRWR-OH), in series [1], the “signal in the absence of rhIL-6” value is “high signal even in the absence of rhIL-6”.

Regarding `O=c1c(Cc2ccco2)nc2c(Cc3ccccc3)[nH]c(-c3ccccc3)cn1-2` [furimazine, 8-benzyl-2-(furan-2-ylmethyl)-6-phenylimidazo[1,2-a]pyrazin-3(7H)-one], the “time to loss of all activity” value in series [2] is “about 10 days”.

With “SulfoSE-PEG3-SmTrip9 Pep938-SA (GRMLFRVTINSWRC; also: SulfoSE-PEG3 label, position not given here) [HW-1050]”, in series [1], the “IL-6 assay result with LgTrip 5146” value is given as “results similar to LgTrip 3546”, the signal to background result is on record as “best signal to background”, the “light output in the presence of high rhIL-6 concentrations” value was ~10^6 RLUs and the “signal in the absence of rhIL-6” value is “low light output in the absence of the analyte”.

B1: anti-IL-6 antibody 5IL6 directly labeled with HW-1010 (SulfoSE-PEG3-SmTrip9 Pep895) (antibody, not shown: large carriers; small tags and cut ends)
peptide: GRLLFVVVIERYR
modifications: not fully specified
In turn, B1 displayed an RLU in series [3] of 100 RLU.

B2: anti-IL-6 antibody 5IL6 directly labeled with HW-1042 (SulfoSE-PEG6-SmTrip9 Pep693) (antibody, not shown: large carriers; small tags and cut ends)
peptide: GRMLFRVTINSWR
modifications: not fully specified
In series [3], B2 came in with an RLU of 100 RLU.

B3: anti-IL-6 antibody 5IL6 directly labeled with HW-0984 (SulfoSE-PEG3-SmTrip9 Pep693) (antibody, not shown: large carriers; small tags and cut ends)
peptide: GRMLFRVTINSWR
modifications: not fully specified
In series [3], B3 came in with an RLU of more than 1000 RLU.

B4: anti-IL-6 antibody 505E directly labeled with HW-0977 (SulfoSE-PEG3-SmTrip10 Pep691) (antibody, not shown: large carriers; small tags and cut ends)
peptide: VSGWRLFRRIS
modifications: also: peptide labeled on anti-IL-6 antibody 505E via SulfoSE-PEG3 linker
The molecule B4 yielded an RLU in series [3] of 100 RLU.

B5: NanoLuc: bioluminescent polypeptide of SEQ ID NO: 5, NanoLuc luciferase (Promega) (protein)
chain: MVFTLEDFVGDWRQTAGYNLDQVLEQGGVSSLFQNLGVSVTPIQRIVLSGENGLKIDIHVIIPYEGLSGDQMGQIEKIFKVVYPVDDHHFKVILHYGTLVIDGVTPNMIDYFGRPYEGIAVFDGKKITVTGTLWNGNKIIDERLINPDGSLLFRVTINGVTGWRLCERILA
Take B5: the “change of RLU in protein buffers without BSA” value in series [4] is “largest decreases in RLU”.

B6: anti-IL-6 antibody 5IL6 directly labeled with HW-1052 (SulfoSE-PEG6-SmTrip9 Pep929) (antibody, not shown: large carriers; small tags and cut ends)
peptide: RRMLFRVTIQRWR
modifications: not fully specified
In turn, B6 registered an RLU in series [3] of 100 RLU.

(Values after patent publication US20200386748A1, “COMPOSITIONS AND METHODS FOR ANALYTE DETECTION USING BIOLUMINESCENCE” (Promega Corporation, priority 2019, published 2020).)
